Where two headings read alike, the source gives them in different places. Some results are limits rather than exact numbers.

The text below walks through data of US20260325533A1, “CDK INHIBITOR COMPOUNDS” (ALEKSIA THERAPEUTICS, INC., priority 2023, published 2026).

What all share (type): biochemical
For test [1], the target named is CDK2/CCNE1 (Homo sapiens, UniProt P24941). Kind of test: CDK2 homogeneous time-resolved fluorescence (HTRF) kinase assay. The settings on record: CDK2/CCNE. A digest of the protocol: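 An HTRF format measures CDK2/CCNE1 (3 nM) phosphorylating a 4E-BP1 Thr37/46 peptide at high (1 mM) ATP. Reactions run one hour at 23 °C, then EDTA-quenched and probed with Eu-labelled phospho-specific antibody.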
(TR-FRET usually uses a lanthanide donor and a delayed reading to cut background.)

Test [2] deals with CDK1/CCNB1 (Homo sapiens, UniProt P06493). Kind of test: CDK1 homogeneous time-resolved fluorescence (HTRF) kinase assay. The settings on record: CDK1/CCNB. An outline of the steps:
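Read-out: TR-FRET (Eu anti-phospho-4E-BP1 Thr37/46 antibody, 2 nM; 665 nm or 665/615 ratio) after 60 min phosphorylation of 50 nM ULight-peptide by 0.5 nM CDK1/CCNB1 at 1 mM ATP, 23 °C. Compound preincubated 20 min with enzyme; 1% DMSO.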

Test [3] concerns the target CDK4/CCND3 (Homo sapiens, UniProt P11802). Kind of test: CDK4 homogeneous time-resolved fluorescence (HTRF) kinase assay. The settings on record: CDK4/CCND. A digest of the protocol: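 TR-FRET read (665 nm, or 665/615 ratio) of 4E-BP1 Thr37/46 phosphorylation by 1.5 nM CDK4/CCND3 at 1 mM ATP, 50 nM ULight peptide, 1% DMSO. Reaction ran 60 min at 23 °C after 20 min compound–enzyme preincubation. IC50 from 11-point half-log dilutions, top 10 μM.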

The target in test [4] is CDK6/CCND1 (Homo sapiens, UniProt Q00534). Put plainly: CDK6 homogeneous time-resolved fluorescence (HTRF) kinase assay. The settings on record: CDK6/CCND. An outline of the steps:
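Assay conditions: HEPES buffer containing 10 mM MgCl2, 1 mM EGTA, 2 mM DTT, 0.01% Tween 20; 1 nM CDK6/CCND1, 50 nM peptide substrate, 1 mM ATP. Detection after 60 min reaction used 2 nM europium antibody with 340 nm excitation. Potency fitted from half-log series, 11 points.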

[5] abbreviates: x = IC50 25-250 nM, read-out: CDK2/CCNE IC50 (25-250 nM).
The mark [6] stands for this setting: x = IC50 >250 nM, read-out: CDK1/CCNB IC50 (>250 nM column).
[7] abbreviates: x = IC50 >250 nM, read-out: CDK4/CCND IC50 (>250 nM column).
Setting [8] is: x = IC50 >250 nM, read-out: CDK6/CCND IC50 (>250 nM column).
The mark [9] stands for this setting: x = IC50 <25 nM, read-out: CDK2/CCNE IC50 (<25 nM).
The mark [10] stands for this setting: x = IC50 25-250 nM, read-out: CDK1/CCNB IC50 (25-250 nM).
Setting [11] is: x = IC50 25-250 nM, read-out: CDK4/CCND IC50 (25-250 nM).
Setting [12] is: x = IC50 25-250 nM, read-out: CDK6/CCND IC50 (25-250 nM).
The mark [13] stands for this setting: 25-250 nM, read-out: CDK2/CCNE IC50, 25-250 nM.
Where [14] appears, read: >250 nM, read-out: CDK1/CCNB IC50 >250 nM.
Where [15] appears, read: >250 nM, read-out: CDK4/CCND IC50, >250 nM.
Setting [16] is: >250 nM, 1 mM ATP, read-out: CDK6/CCND IC50, >250 nM.
Where [17] appears, read: <25 nM, read-out: CDK2/CCNE IC50, <25 nM.

Sequence of CDK1/CCNB1 (P06493 whole entry): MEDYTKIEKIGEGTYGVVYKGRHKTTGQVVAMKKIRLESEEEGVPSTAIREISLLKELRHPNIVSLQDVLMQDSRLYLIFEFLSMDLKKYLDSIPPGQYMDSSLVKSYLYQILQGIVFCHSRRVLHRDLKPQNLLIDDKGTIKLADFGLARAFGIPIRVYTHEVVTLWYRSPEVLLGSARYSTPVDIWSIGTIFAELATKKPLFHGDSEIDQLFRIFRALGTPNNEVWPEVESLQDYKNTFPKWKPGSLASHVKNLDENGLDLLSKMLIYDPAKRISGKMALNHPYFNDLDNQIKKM
Sequence of CDK1/CCNB1 (P14635 whole entry partner): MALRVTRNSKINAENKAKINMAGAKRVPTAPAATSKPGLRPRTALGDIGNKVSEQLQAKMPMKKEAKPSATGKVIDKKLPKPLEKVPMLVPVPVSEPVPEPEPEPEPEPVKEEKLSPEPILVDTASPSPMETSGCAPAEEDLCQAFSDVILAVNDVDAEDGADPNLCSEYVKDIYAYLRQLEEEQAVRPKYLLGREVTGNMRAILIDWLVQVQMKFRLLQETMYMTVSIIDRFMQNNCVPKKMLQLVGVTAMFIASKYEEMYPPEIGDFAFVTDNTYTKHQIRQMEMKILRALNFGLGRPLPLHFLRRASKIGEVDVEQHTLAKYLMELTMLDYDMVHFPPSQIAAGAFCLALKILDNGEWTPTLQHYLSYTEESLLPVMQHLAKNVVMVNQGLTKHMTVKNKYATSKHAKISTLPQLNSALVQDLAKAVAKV
Sequence of CDK6/CCND1 (Q00534 whole entry): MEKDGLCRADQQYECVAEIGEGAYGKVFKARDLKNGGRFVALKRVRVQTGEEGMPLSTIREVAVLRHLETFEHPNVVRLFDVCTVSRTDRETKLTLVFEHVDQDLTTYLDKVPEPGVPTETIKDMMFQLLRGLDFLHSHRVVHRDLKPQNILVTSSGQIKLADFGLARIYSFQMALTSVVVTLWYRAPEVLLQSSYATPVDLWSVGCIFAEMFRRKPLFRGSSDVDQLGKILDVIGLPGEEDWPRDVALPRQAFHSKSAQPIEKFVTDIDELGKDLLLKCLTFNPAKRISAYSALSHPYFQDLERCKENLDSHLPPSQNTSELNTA
Sequence of CDK6/CCND1 (P24385 whole entry partner): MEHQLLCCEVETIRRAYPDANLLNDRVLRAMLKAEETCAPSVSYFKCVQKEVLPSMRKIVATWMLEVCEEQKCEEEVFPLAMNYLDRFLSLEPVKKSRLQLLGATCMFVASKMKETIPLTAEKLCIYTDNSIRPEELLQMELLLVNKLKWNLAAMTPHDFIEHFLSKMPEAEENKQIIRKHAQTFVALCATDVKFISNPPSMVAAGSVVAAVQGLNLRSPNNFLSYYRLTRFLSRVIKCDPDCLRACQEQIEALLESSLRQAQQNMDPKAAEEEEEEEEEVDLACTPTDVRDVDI
Sequence of CDK4/CCND3 (P11802 whole entry): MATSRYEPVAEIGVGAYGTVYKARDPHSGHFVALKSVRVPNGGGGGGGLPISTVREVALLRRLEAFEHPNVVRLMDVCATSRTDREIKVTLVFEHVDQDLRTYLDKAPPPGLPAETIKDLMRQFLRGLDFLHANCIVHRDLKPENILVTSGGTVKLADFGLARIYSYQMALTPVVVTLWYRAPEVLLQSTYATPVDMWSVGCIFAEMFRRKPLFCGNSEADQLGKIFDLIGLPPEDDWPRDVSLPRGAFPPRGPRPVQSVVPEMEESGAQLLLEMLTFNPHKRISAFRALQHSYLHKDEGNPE
Sequence of CDK4/CCND3 (P30281 whole entry partner): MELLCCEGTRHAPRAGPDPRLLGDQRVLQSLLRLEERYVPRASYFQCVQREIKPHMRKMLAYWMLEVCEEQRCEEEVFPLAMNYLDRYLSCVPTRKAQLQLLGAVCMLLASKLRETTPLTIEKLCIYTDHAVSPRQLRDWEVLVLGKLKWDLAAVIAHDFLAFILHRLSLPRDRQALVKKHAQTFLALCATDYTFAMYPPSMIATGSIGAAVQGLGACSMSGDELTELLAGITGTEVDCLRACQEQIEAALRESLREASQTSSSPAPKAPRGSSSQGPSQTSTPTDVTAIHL

For `Cc1c(-c2nccc3cnc(Nc4ccc(S(C)(=O)=O)cc4)cc23)ccc2c1cnn2CC#N` [Ex 656, 2-(4-methyl-5-(7-((4-(methylsulfonyl)phenyl)amino)-2,6-naphthyridin-1-yl)-1H-indazol-1-yl)acetonitrile], the IC50 is 25 to 250 nM in test [1] (setting [5]), over 250 nM in test [2] (setting [6]), over 250 nM in test [3] (setting [7]) and over 250 nM in test [4] (setting [8]).
Take `Cc1c(-c2nccc3cnc(Nc4ccc(S(C)(=O)=O)cc4)cc23)ccc2c1ccn2CCO` [Ex 657, 2-(4-methyl-5-(7-((4-(methylsulfonyl)phenyl)amino)-2,6-naphthyridin-1-yl)-1H-indol-1-yl)ethan-1-ol]: the IC50 is under 25 nM in test [1] (setting [9]), 25 to 250 nM in test [2] (setting [10]), 25 to 250 nM in test [3] (setting [11]) and 25 to 250 nM in test [4] (setting [12]).
`Cc1c(-c2nccc3cnc(Nc4ccc(S(C)(=O)=O)cc4)cc23)ccc2cn[nH]c12` [Ex 658, 5-(7-methyl-1H-indazol-6-yl)-N-(4-(methylsulfonyl)phenyl)-2,6-naphthyridin-3-amine]: the IC50 in test [1] (setting [9]) is under 25 nM; in test [2] (setting [10]) it was 25 to 250 nM; in test [3] (setting [11]), 25 to 250 nM; in test [4] (setting [12]), 25 to 250 nM.
Turning to `COc1cc(C#Cc2nccc3cnc(Nc4ccc(S(C)(=O)=O)cc4)cc23)ccn1` [Ex 660, 5-((2-methoxypyridin-4-yl)ethynyl)-N-(4-(methylsulfonyl)phenyl)-2,6-naphthyridin-3-amine], the IC50 in test [1] (setting [5]) was 25 to 250 nM; in test [2] (setting [6]), over 250 nM; in test [3] (setting [7]), over 250 nM; in test [4] (setting [8]) it was over 250 nM.
In the case of `Cc1c(-c2nccc3cnc(Nc4ccc(S(=O)(=O)C5CC5)cc4)cc23)ccc2c1cnn2CCO` [Ex 662, 2-(5-(7-((4-(cyclopropylsulfonyl)phenyl)amino)-2,6-naphthyridin-1-yl)-4-methyl-1H-indazol-1-yl)ethan-1-ol], the IC50 in test [1] (setting [9]) is under 25 nM; in test [2] (setting [10]), 25 to 250 nM; in test [3] (setting [11]) it was 25 to 250 nM; in test [4] (setting [12]), 25 to 250 nM.
As to `CS(=O)(=O)c1ccc(Nc2cc3c(C#Cc4cn[nH]c4)nccc3cn2)cc1` [Ex 664, 5-((1H-pyrazol-4-yl)ethynyl)-N-(4-(methylsulfonyl)phenyl)-2,6-naphthyridin-3-amine], the IC50 in test [1] (setting [9]) was under 25 nM; in test [2] (setting [6]), over 250 nM; in test [3] (setting [7]) it was over 250 nM; in test [4] (setting [8]), over 250 nM.
Turning to `N#Cc1ccc(C#Cc2nccc3cnc(Nc4ccc(S(=O)(=O)CCO)cc4)cc23)cc1` [Ex 665, 4-((7-((4-((2-hydroxyethyl)sulfonyl)phenyl)amino)-2,6-naphthyridin-1-yl)ethynyl)benzonitrile], the IC50 was 25 to 250 nM in test [1] (setting [5]), over 250 nM in test [2] (setting [6]), over 250 nM in test [3] (setting [7]) and over 250 nM in test [4] (setting [8]).
Turning to `CS(=O)(=O)c1ccc(Nc2cc3c(C#Cc4ccc(=O)[nH]c4)nccc3cn2)cc1` [Ex 667, 5-((7-((4-(methylsulfonyl)phenyl)amino)-2,6-naphthyridin-1-yl)ethynyl)pyridin-2(1H)-one], the IC50 in test [1] (setting [9]) is under 25 nM; in test [2] (setting [10]), 25 to 250 nM; in test [3] (setting [11]), 25 to 250 nM; in test [4] (setting [8]), over 250 nM.
As to `CS(=O)(=O)c1ccc(Nc2cc3c(C#Cc4ccc(C#N)nc4)nccc3cn2)cc1` [Ex 669, 5-((7-((4-(methylsulfonyl)phenyl)amino)-2,6-naphthyridin-1-yl)ethynyl)picolinonitrile], the IC50 in test [1] (setting [5]) is 25 to 250 nM; in test [2] (setting [6]) it was over 250 nM; in test [3] (setting [7]) it was over 250 nM; in test [4] (setting [8]), over 250 nM.
Take `Cc1c(-c2nccc3cnc(Nc4ccc(S(N)(=O)=O)cc4)cc23)ccc2c1cnn2CCO` [Ex 673, 4-((5-(1-(2-hydroxyethyl)-4-methyl-1H-indazol-5-yl)-2,6-naphthyridin-3-yl)amino)benzenesulfonamide]: the IC50 was under 25 nM in test [1] (setting [9]); 25 to 250 nM in test [2] (setting [10]); under 25 nM in test [3] (x = IC50 <25 nM, read-out: CDK4/CCND IC50 (<25 nM)); under 25 nM in test [4] (x = IC50 <25 nM, read-out: CDK6/CCND IC50 (<25 nM)).
As to `Cc1c(-c2nccc3cnc(Nc4ccc(S(C)(=O)=O)cc4)cc23)ccc2c1cnn2CC(N)=O` [Ex 676, 2-(4-methyl-5-(7-((4-(methylsulfonyl)phenyl)amino)-2,6-naphthyridin-1-yl)-1H-indazol-1-yl)acetamide], the IC50 was under 25 nM in test [1] (setting [9]), 25 to 250 nM in test [2] (setting [10]), 25 to 250 nM in test [3] (setting [11]) and 25 to 250 nM in test [4] (setting [12]).
Turning to `Cc1c(-c2nccc3cnc(Nc4ccc(S(=O)(=O)NCC(F)(F)F)cc4)cc23)ccc2c1cnn2CC(O)(C(F)(F)F)C(F)(F)F` [Ex 684, 4-((5-(4-methyl-1-(3,3,3-trifluoro-2-hydroxy-2-(trifluoromethyl)propyl)-1H-indazol-5-yl)-2,6-naphthyridin-3-yl)amino)-N-(2,2,2-trifluoroethyl)benzenesulfonamide], the IC50 is 25 to 250 nM in test [1] (setting [13]), over 250 nM in test [2] (setting [14]), over 250 nM in test [3] (setting [15]) and over 250 nM in test [4] (setting [16]).
Turning to `Cc1ccc(NS(=O)(=O)c2ccc(Nc3cc4c(-c5ccc6c(cnn6CC(O)(C(F)(F)F)C(F)(F)F)c5C)nccc4cn3)cc2)nc1N1CCOCC1` [Ex 694, 4-((5-(4-methyl-1-(3,3,3-trifluoro-2-hydroxy-2-(trifluoromethyl)propyl)-1H-indazol-5-yl)-2,6-naphthyridin-3-yl)amino)-N-(5-methyl-6-morpholinopyridin-2-yl)benzenesulfonamide], the IC50 is 25 to 250 nM in test [1] (setting [13]), over 250 nM in test [2] (setting [14]), over 250 nM in test [3] (setting [15]) and over 250 nM in test [4] (setting [16]).
`CCNS(=O)(=O)c1ccc(Nc2cc3c(-c4ccc5c(cnn5CC(O)(C(F)(F)F)C(F)(F)F)c4C)nccc3cn2)cc1` [Ex 695, N-ethyl-4-((5-(4-methyl-1-(3,3,3-trifluoro-2-hydroxy-2-(trifluoromethyl)propyl)-1H-indazol-5-yl)-2,6-naphthyridin-3-yl)amino)benzenesulfonamide]: the IC50 in test [1] (setting [17]) was under 25 nM; in test [2] (setting [14]), over 250 nM; in test [3] (setting [15]) it was over 250 nM; in test [4] (setting [16]), over 250 nM.
For the compound `COc1ccc(NS(=O)(=O)c2ccc(Nc3cc4c(-c5ccc6c(cnn6CC(O)(C(F)(F)F)C(F)(F)F)c5C)nccc4cn3)cc2)nc1N1CCOCC1` [Ex 697, N-(5-methoxy-6-morpholinopyridin-2-yl)-4-((5-(4-methyl-1-(3,3,3-trifluoro-2-hydroxy-2-(trifluoromethyl)propyl)-1H-indazol-5-yl)-2,6-naphthyridin-3-yl)amino)benzenesulfonamide], the IC50 is 25 to 250 nM in test [1] (setting [13]), over 250 nM in test [2] (setting [14]), over 250 nM in test [3] (setting [15]) and over 250 nM in test [4] (setting [16]).
Turning to `Cc1cnc(NS(=O)(=O)c2ccc(Nc3cc4c(-c5ccc6c(cnn6CC(O)(C(F)(F)F)C(F)(F)F)c5C)nccc4cn3)cc2)cc1N1CCOCC1` [Ex 701, 4-((5-(4-methyl-1-(3,3,3-trifluoro-2-hydroxy-2-(trifluoromethyl)propyl)-1H-indazol-5-yl)-2,6-naphthyridin-3-yl)amino)-N-(5-methyl-4-morpholinopyridin-2-yl)benzenesulfonamide], the IC50 was under 25 nM in test [1] (setting [17]), over 250 nM in test [2] (setting [14]), over 250 nM in test [3] (setting [15]) and over 250 nM in test [4] (setting [16]).
